US20110195929A1, “COMPOUNDS FOR THE TREATMENT OF FLAVIVIRAL INFECTIONS” (SUMMIT CORPORATION PLC, priority 2008, published 2011)
Read-outs that look alike come from different tables or passages of the source.

Tests used:
[1] = target: T1, α-D-mannosidase (Canavalia ensiformis, UniProt C0HJB3); assay: Glycosidase inhibition: α-D-mannosidase; assay type: biochemical, Jack beans (Canavalia ensiformis); settings: 1 mg/ml; pH 4.5, 20° C
T1 construct: purchased Sigma
T1 sequence (C0HJB3 1-981): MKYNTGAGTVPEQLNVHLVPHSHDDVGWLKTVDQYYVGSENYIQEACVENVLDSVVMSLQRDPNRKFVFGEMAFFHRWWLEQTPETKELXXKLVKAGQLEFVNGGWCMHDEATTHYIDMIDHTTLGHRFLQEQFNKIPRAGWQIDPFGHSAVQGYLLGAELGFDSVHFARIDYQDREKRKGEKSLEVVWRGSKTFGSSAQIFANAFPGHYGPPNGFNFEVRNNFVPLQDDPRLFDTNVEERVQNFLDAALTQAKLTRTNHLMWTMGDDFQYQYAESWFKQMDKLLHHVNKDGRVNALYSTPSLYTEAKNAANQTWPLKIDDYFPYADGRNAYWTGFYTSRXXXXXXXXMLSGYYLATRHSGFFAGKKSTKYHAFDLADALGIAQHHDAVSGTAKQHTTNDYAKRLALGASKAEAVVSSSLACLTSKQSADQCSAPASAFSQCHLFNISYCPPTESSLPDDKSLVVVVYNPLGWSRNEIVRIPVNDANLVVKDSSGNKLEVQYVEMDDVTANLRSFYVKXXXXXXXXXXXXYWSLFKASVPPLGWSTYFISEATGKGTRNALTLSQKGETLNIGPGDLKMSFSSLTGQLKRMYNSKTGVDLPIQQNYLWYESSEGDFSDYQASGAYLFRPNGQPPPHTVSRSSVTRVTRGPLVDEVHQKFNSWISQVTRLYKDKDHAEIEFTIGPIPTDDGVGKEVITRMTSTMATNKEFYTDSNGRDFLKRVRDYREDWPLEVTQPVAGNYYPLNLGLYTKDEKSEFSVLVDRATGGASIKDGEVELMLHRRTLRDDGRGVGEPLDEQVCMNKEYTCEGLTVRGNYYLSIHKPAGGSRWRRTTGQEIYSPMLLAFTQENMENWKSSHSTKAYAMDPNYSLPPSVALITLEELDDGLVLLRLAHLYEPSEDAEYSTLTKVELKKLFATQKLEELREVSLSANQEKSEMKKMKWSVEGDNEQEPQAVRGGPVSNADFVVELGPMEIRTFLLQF
Protocol: (§1) Inhibition of the N-linked glycan trimming enzymes alpha-Glucosidases I and II or alpha-Mannosidases I and II are thought to be related to the anti-viral activity of castanospermine (Compound 104) and 1-deoxynojirimycin (Compound 193). […] All enzymes were purchased from Sigma, as were the appropriate p-nitrophenyl substrates. Assays were carried out in microtitre plates. Enzymes were assayed in 0.1M citric acid/0.2M di-sodium hydrogen phosphate (McIlvaine) buffers at the optimum pH for the enzyme. All assays were carried out at 20° C. For screening assays the incubation assay consisted of 10 μl of enzyme solution, 10 μl of inhibitor solution (made up in water at 5 mM) and 50 μl of the appropriate 5 mM p-nitrophenyl substrate (3.57 mM final conc.) made up in McIlvaine buffer at the optimum pH for the enzyme.
(§2) The reactions were stopped with 0.4M glycine (pH 10.4) during the exponential phase of the reaction, which was determined at the beginning of the assay using blanks with water, which were incubated for a range of time periods to measure the reaction rate using 5 mM substrate solution. Endpoint absorbances were read at 405 nm with a Bio-rad microtitre plate reader (Benchmark). Water was substituted for the inhibitors in the blanks.

[2] = target: T2, α-D-galactosidase (Coffea arabica, UniProt Q42656); assay: Glycosidase inhibition: α-D-galactosidase; assay type: biochemical, Green coffee beans (Coffea sp.); settings: 1 mg/ml; pH 6.5, 20° C
T2 construct: purchased Sigma
Protocol: as §1, §2

[3] = system: α-D-glucosidase; assay: Glycosidase inhibition: α-D-glucosidase (Bacillus); assay type: biochemical, Bacillus stearothermophilus; settings: 1 mg/ml; pH 6.0, 20° C
Protocol: as §1, §2

[4] = system: Naringinase; assay: Glycosidase inhibition: Naringinase; assay type: biochemical, Penecillium decumbens; settings: 1 mg/ml; pH 4.0, 20° C
Protocol: as §1, §2

[5] = target: T3, α-D-glucosidase (Saccharomyces cerevisiae, UniProt P53341); assay: Glycosidase inhibition: α-D-glucosidase (yeast); assay type: biochemical, Saccharomyces cerevisiae (Baker's yeast); settings: 1 mg/ml; pH 6.0, 20° C; read-out: % inhibition α-gluc (yeast)
T3 construct: purchased Sigma
Protocol: as §1, §2

[6] = system: BVDV; assay: BVDV plaque inhibition assay; assay type: cell-based, bovine diarrhoea virus (BVDV); settings: for IC50: Bovine viral diarrhea virus isolates and strains, in Bos taurus; for % untreated control: Example 5
Protocol: BVDV Plaque Assay: In the absence of a suitable cell culture system able to support replication of human HCV, bovine diarrhoea virus (BVDV) is an accepted cell culture model. HCV and BVDV share a significant degree of local protein homology, a common replication strategy and probably the same subcellular location for viral envelopment.
(§3) The materials and procedures were as described in Whitby et al. (2004) Antiviral Chemistry and Chemotherapy 15: 141-151. In brief, MDBK cells were seeded in 96 well plates and allowed to reach confluency. Monolayers were exposed to between 14 and 45 plaque forming units of BVDV and adsorption allowed to take place. Infected monolayers were then exposed to the test compound, medium added containing low gelling-point agarose and allowed to set. The plates were then incubated for 4 days post infection, fixed in 5% formalin and stained with 0.5% neutral red after removal of the agarose layer. Anti-viral activity was measured by determination of plaque inhibition and expressed as IC50 values. Castanospermine, a known viral inhibitor, was used as a positive control.
For these assays a confluent monolayer of MDBK cells is produced in a flat bottomed well of a tissue culture plate. The monolayer is infected with BVDV. Sufficient virus is added to eventually form approximately 20-30 plaques. After allowing approximately 1 hr for the virus to infect, the cells are washed and liquid agar is added and allowed to set as a thin layer over the cell surface (the ‘overlay’). The infected cells are then left for a period of days to allow the virus to replicate and cells to shed virus, detach or lyse. Cells in the immediate vicinity of the initial virus infection are therefore infected—localized by the agar layer.
The test compound is added at appropriate dilutions with the virus. An antiviral effect of the compound is scored by the reduction of plaque number or size. The concentration of compound required to produce a 50% (IC50) reduction of plaque number or size is noted. Controls of no compound added are included. A control of a known antiviral compound (castanospermine) is carried out to calibrate the antiviral activity.
Plaque Assay: The materials and procedures were as described in Whitby et al. (2004) Antiviral Chemistry and Chemotherapy 15: 141-151.
as §3, with “In” for “The materials and procedures were as described in Whitby et al. (2004) Antiviral Chemistry and Chemotherapy 15: 141-151. In”, “Castanospermine (Compound 104),” for “Castanospermine,”

[7] = MDBK, 96 h, read-out: IC50 (μg/ml)
[8] = Examples 1-3, 50% reduction of plaque number or size, MDBK cells, read-out: IC50 (μg/ml)

T2 sequence (Q42656 16-378): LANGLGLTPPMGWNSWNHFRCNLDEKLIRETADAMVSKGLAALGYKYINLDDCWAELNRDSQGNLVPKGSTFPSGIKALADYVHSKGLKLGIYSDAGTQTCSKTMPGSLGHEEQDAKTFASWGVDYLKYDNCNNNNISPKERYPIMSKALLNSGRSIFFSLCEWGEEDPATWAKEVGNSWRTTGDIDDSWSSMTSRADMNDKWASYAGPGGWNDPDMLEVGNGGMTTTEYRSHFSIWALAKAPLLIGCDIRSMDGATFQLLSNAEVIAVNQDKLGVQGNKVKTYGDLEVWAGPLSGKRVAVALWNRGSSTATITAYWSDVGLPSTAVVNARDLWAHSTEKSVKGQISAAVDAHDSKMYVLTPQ
T3 sequence (P53341 whole entry): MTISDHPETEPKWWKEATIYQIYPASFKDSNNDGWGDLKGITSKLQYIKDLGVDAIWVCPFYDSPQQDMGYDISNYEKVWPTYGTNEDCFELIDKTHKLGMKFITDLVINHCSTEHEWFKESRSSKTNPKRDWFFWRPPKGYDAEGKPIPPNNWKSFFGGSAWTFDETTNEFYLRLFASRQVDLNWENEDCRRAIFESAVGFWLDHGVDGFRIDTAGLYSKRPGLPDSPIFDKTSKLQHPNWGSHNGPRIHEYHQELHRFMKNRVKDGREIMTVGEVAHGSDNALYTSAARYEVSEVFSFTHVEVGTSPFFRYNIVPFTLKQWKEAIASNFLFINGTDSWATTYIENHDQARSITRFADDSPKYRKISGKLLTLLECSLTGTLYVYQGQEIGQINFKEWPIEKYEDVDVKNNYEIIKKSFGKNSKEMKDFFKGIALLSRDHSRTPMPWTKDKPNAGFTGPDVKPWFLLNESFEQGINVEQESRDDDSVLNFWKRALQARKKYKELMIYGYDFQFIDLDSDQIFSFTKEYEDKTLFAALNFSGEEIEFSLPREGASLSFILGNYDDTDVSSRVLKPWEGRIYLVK

**Q.** With `CC[C@@H]1N[C@@H](CO)[C@H](O)[C@@H](O)[C@@H]1O` [Compound 23, (2S,3R,4S,5S,6S)-2-ethyl-6-(hydroxymethyl)piperidine-3,4,5-triol] as the compound, how does the inhibition at 1000 µg/mL [1] read?
**A.** Its inhibition at 1000 µg/mL is 0%.

**Q.** What about the inhibition at 1000 µg/mL [2] of the same compound?
**A.** The inhibition at 1000 µg/mL was 0%.

**Q.** What about the “% inhibition α-gluc (Bacillus)” value [3] of the same compound?
**A.** The value was 0%.

**Q.** What about the “% inhibition Naringinase” value [4] of the same compound?
**A.** Its value is 0%.

**Q.** And the inhibition at 1000 µg/mL [5]?
**A.** Its inhibition at 1000 µg/mL is 0%.

**Q.** And the IC50 ([6]; MDBK, 96 h, read-out: IC50)?
**A.** Its IC50 is 420 µM.

**Q.** And the IC50 [6, 7]?
**A.** Its IC50 is 80 µg/mL.

**Q.** What about the “% untreated control” value ([6]; dose 32 μg/ml (0.17 mM)) of the same compound?
**A.** The value was 83%.

**Q.** And the “% untreated control” value ([6]; dose 63 μg/ml (0.33 mM))?
**A.** Its value is 56%.

**Q.** And the “% untreated control” value ([6]; dose 125 μg/ml (0.65 mM))?
**A.** The value was 47%.

**Q.** And the “% untreated control” value ([6]; dose 250 μg/ml (1.30 mM))?
**A.** The value was 35%.

**Q.** What about the “% untreated control” value ([6]; dose 500 μg/ml (2.60 mM)) of the same compound?
**A.** The value was 22%.

**Q.** Which inhibition at 1000 µg/mL [1] does the source give for `CC[C@@H](O)[C@H]1N[C@H](CO)[C@@H](O)[C@@H]1O` [Compound 62, (2R,3R,4R,5R)-2-(hydroxymethyl)-5-((R)-1-hydroxypropyl)pyrrolidine-3,4-diol] here?
**A.** Its inhibition at 1000 µg/mL is 0%.

**Q.** And the inhibition at 1000 µg/mL [2]?
**A.** The inhibition at 1000 µg/mL was 0%.

**Q.** What about the “% inhibition α-gluc (Bacillus)” value [3] of the same compound?
**A.** The value was 65%.

**Q.** And the “% inhibition Naringinase” value [4]?
**A.** The value was 37%.

**Q.** What about the inhibition at 1000 µg/mL [5] of the same compound?
**A.** Its inhibition at 1000 µg/mL is 0%.

**Q.** What about the IC50 [6, 8] of the same compound?
**A.** The IC50 was 16.7 µg/mL.

**Q.** Which results are given for `CC(O)[C@H](O)[C@H]1N[C@H](CO)[C@@H](O)[C@@H]1O` (stereo partly drawn) [Compound 63, (2R,3R,4R,5R)-2-((1R)-1,2-dihydroxypropyl)-5-(hydroxymethyl)pyrrolidine-3,4-diol]?
**A.** inhibition at 1000 µg/mL [1]: 0%; inhibition at 1000 µg/mL [2]: 0%; % inhibition α-gluc (Bacillus) [3]: 36%; % inhibition Naringinase [4]: 0%; inhibition at 1000 µg/mL [5]: 0%; IC50 [6, 8]: 87.2 µg/mL

**Q.** What does the source list for `O[C@H]1[C@H](O)[C@@H](O)CN2CC[C@H](O)[C@H]12` [Compound 104, Castanospermine, reference compound]?
**A.** inhibition at 1000 µg/mL [1]: 0%; inhibition at 1000 µg/mL [2]: 0%; % inhibition α-gluc (Bacillus) [3]: 0%; % inhibition Naringinase [4]: 39%; inhibition at 1000 µg/mL [5]: 0%; IC50 ([6]; MDBK, 96 h, read-out: IC50): 120 µM; IC50 [6, 7]: 22.5 µg/mL; IC50 [6, 8]: 15.6 µg/mL; % untreated control ([6]; dose 6.0 μg/ml (0.03 mM)): 98%; % untreated control ([6]; dose 12.5 μg/ml (0.07 mM)): 67%; % untreated control ([6]; dose 25.0 μg/ml (0.13 mM)): 46%; % untreated control ([6]; dose 50.0 μg/ml (0.26 mM)): 12%; % untreated control ([6]; dose 100.0 μg/ml (0.53 mM)): 1.1%

**Q.** With `OC[C@@H]1NC[C@H](O)[C@@H]1O` [Compound 167, (2S,3R,4S)-2-(hydroxymethyl)pyrrolidine-3,4-diol] as the compound, how does the inhibition at 1000 µg/mL [1] read?
**A.** Its inhibition at 1000 µg/mL is 0%.

**Q.** And the inhibition at 1000 µg/mL [2]?
**A.** Its inhibition at 1000 µg/mL is 32%.

**Q.** What about the “% inhibition α-gluc (Bacillus)” value [3] of the same compound?
**A.** The value was 35%.

**Q.** And the “% inhibition Naringinase” value [4]?
**A.** The value was 50%.

**Q.** And the inhibition at 1000 µg/mL [5]?
**A.** Its inhibition at 1000 µg/mL is 0%.

**Q.** What about the IC50 [6, 8] of the same compound?
**A.** The IC50 was 57.6 µg/mL.
